Assay results from PubChem BioAssay AID248 (DTP/NCI, 2004).
Toxic doses and inconclusive results are not listed. Rule as the data show it: active = T/C of 150% or more; inactive = T/C below 125%.

Test system: L1210 leukemia ip in BDF1 mice, survival T/C
Test: NCI In Vivo Anticancer Drug Screen. Data for tumor model L1210 Leukemia (intraperitoneal) in B6D2F1 (BDF1) mice
Conditions: endpoint: mean survival time, higher = longer survival
In short: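 Antitumor effect is assessed in tumor-bearing animals. Survival in the compound arm is compared with a vehicle-dosed control arm and expressed as their quotient.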

[1] = dose: 100.0 mg/kg/injection, schedule: Q04DX003 (ip), vehicle: saline with Tween-80
[2] = dose: 200.0 mg/kg/injection, schedule: Q04DX003 (ip), vehicle: saline with Tween-80
[3] = dose: 100.0 mg/kg/injection, schedule: Q04DX003 (ip), vehicle: saline
[4] = dose: 100.0 mg/kg/injection, schedule: Q04DX002 (ip), vehicle: Klucel (hydroxypropylcellulose) (HPC)
[5] = dose: 100.0 mg/kg/injection, schedule: Q01DX009 (ip), vehicle: Klucel (hydroxypropylcellulose) (HPC)
[6] = dose: 200.0 mg/kg/injection, schedule: Q01DX009 (ip), vehicle: Klucel (hydroxypropylcellulose) (HPC)

Measured: T/C

COC(=O)NCCc1cc(OC)c(OC)cc1Br
inactive: [1] 86 % of control | [2] 91 % of control | dose: 400.0 mg/kg/injection, schedule: Q04DX003 (ip), vehicle: saline with Tween-80 91 % of control

NN1N=Nc2cccc3cccc1c23
inactive: dose: 50.0 mg/kg/injection, schedule: Q01DX009 (ip), vehicle: saline 96 % of control | dose: 100.0 mg/kg/injection, schedule: Q01DX009 (ip), vehicle: saline 107 % of control | [3] 92 % of control | dose: 200.0 mg/kg/injection, schedule: Q01DX009 (ip), vehicle: saline 88 % of control | dose: 200.0 mg/kg/injection, schedule: Q04DX003 (ip), vehicle: saline 91 % of control

O=C(Nc1cccc(C2=NCCCN2)c1)c1ccc(C(=O)Nc2cccc(C3=NCCCN3)c2)cc1
inactive: dose: 0.1 mg/kg/injection, schedule: Q01DX Z (ip), vehicle: saline 95 % of control | dose: 0.2 mg/kg/injection, schedule: Q01DX Z (ip), vehicle: saline 100 % of control | dose: 0.3 mg/kg/injection, schedule: Q01DX Z (ip), vehicle: saline 97 % of control | dose: 0.5 mg/kg/injection, schedule: Q01DX Z (ip), vehicle: saline 97 % of control

CCN(CC)CCOC(=O)c1ccccc1Nc1cccc(C)c1
inactive: dose: 4.0 mg/kg/injection, schedule: Q01DX015 (ip), vehicle: saline 98 % of control | dose: 8.0 mg/kg/injection, schedule: Q01DX015 (ip), vehicle: saline 102 % of control | dose: 16.0 mg/kg/injection, schedule: Q01DX015 (ip), vehicle: saline 98 % of control | dose: 32.0 mg/kg/injection, schedule: Q01DX015 (ip), vehicle: saline 106 % of control | dose: 50.0 mg/kg/injection, schedule: Q04DX003 (ip), vehicle: saline 101 % of control | [3] 103 % of control

COc1ccccc1/C=C/C(=O)N1CCC2(CC1)C(=O)N(C)CN2c1ccccc1
inactive: dose: 75.0 mg/kg/injection, schedule: Q04DX003 (ip), vehicle: Klucel (hydroxypropylcellulose) (HPC) 96 % of control | dose: 150.0 mg/kg/injection, schedule: Q04DX003 (ip), vehicle: Klucel (hydroxypropylcellulose) (HPC) 86 % of control | dose: 300.0 mg/kg/injection, schedule: Q04DX003 (ip), vehicle: Klucel (hydroxypropylcellulose) (HPC) 91 % of control

CC(=O)OC1C(C=O)OC(C)(C)OC1C1COC(=O)O1 (configuration not stated)
inactive: dose: 25.0 mg/kg/injection, schedule: Q04DX002 (ip), vehicle: Klucel (hydroxypropylcellulose) (HPC) 104 % of control | dose: 50.0 mg/kg/injection, schedule: Q04DX002 (ip), vehicle: Klucel (hydroxypropylcellulose) (HPC) 93 % of control | [4] 100 % of control

CC(C)(C)NC#SNC(C)(C)C
inactive: dose: 100.0 mg/kg/injection, schedule: Q04DX002 (ip), vehicle: saline with Tween-80 100 % of control | dose: 200.0 mg/kg/injection, schedule: Q04DX002 (ip), vehicle: saline with Tween-80 92 % of control | dose: 400.0 mg/kg/injection, schedule: Q04DX002 (ip), vehicle: saline with Tween-80 92 % of control

Cc1ccc(S(=O)(=O)OCCN(CCOS(=O)(=O)c2ccc(C)cc2)c2cc(OCc3ccccc3)cc(OCc3ccccc3)c2)cc1
inactive: dose: 25.0 mg/kg/injection, schedule: Q01DX009 (ip), vehicle: water 100 % of control | dose: 50.0 mg/kg/injection, schedule: Q01DX009 (ip), vehicle: water 121 % of control | dose: 100.0 mg/kg/injection, schedule: Q01DX009 (ip), vehicle: water 89 % of control | dose: 400.0 mg/kg/injection, schedule: Q01DX009 (ip), vehicle: water 95 % of control

CC(C)=CCC/C(C)=C/Cn1ccccc1=O
inactive: dose: 100.0 mg/kg/injection, schedule: Q01DX001 (ip), vehicle: saline with Tween-80 98 % of control | dose: 200.0 mg/kg/injection, schedule: Q01DX001 (ip), vehicle: saline with Tween-80 98 % of control

CC1CCOP(=O)(Sc2ccccc2)O1 (configuration not stated)
inactive: dose: 75.0 mg/kg/injection, schedule: Q04DX002 (ip), vehicle: Klucel (hydroxypropylcellulose) (HPC) 102 % of control | [4] 106 % of control | dose: 150.0 mg/kg/injection, schedule: Q04DX002 (ip), vehicle: Klucel (hydroxypropylcellulose) (HPC) 113 % of control | dose: 200.0 mg/kg/injection, schedule: Q04DX002 (ip), vehicle: Klucel (hydroxypropylcellulose) (HPC) 109 % of control

CCCCN=C(C(=O)NCCCC)c1ccccc1NC(C)=O
inactive: [5] 97 % of control | [6] 86 % of control

C#CC(NCCC(C)CC(C)(C)C)C(C)C (configuration not stated)
inactive: [1] 103 % of control | [2] 90 % of control

O=C(NC(CSC(=O)OCc1ccccc1)C(=O)Oc1ccc([N+](=O)[O-])cc1)OCc1ccccc1 (configuration not stated)
inactive: [5] 104 % of control | dose: 100.0 mg/kg/injection, schedule: Q04DX003 (ip), vehicle: Klucel (hydroxypropylcellulose) (HPC) 97 % of control | [6] 114 % of control | dose: 200.0 mg/kg/injection, schedule: Q04DX003 (ip), vehicle: Klucel (hydroxypropylcellulose) (HPC) 100 % of control | dose: 400.0 mg/kg/injection, schedule: Q01DX009 (ip), vehicle: Klucel (hydroxypropylcellulose) (HPC) 109 % of control | dose: 400.0 mg/kg/injection, schedule: Q04DX003 (ip), vehicle: Klucel (hydroxypropylcellulose) (HPC) 103 % of control
